Patent US7037929B1, “2-amino-thiazole derivatives, process for their preparation, and their use as antitumor agents” (Pharmacia & Upjohn S.p.A., priority 1998, dated 2006)

Target: cdk2/cyclin A complex (Homo sapiens, UniProt P24941)
Assay: inhibition assay of cdk2/Cyclin A activity (MultiScreen-PH phosphocellulose filter plate, 33P-ATP, histone H1)
Type: biochemical
Settings: ATP and histone H1 substrate concentrations varied; random bireactant system equation; read-out: inhibiting activity towards the cdk2/cyclin A complex (Ki)
Experimental: The inhibiting activity of putative cdk/cyclin inhibitors and the potency of selected compounds was determined through a method of assay based on the use of the MultiScreen-PH 96 well plate (Millipore), in which a phosphocellulose filter paper was placed at each well bottom allowing binding of positive charged substrate after a washing/filtration step.
When a radioactivity labelled phosphate moiety was transferred by the ser/threo kinase to the filter-bound histone, light emitted was measured in a scintillation counter. The inhibition assay of cdk2/Cyclin A activity was performed according to the following protocol:
Kinase reaction: 1.5 μM histone H1 substrate, 25 μM ATP (0. 5 μCi P^33γ-ATP), 30 ng Cyclin A/cdk2 complex, […] in a final volume of 100 μl buffer (TRIS HCl 10 mM pH 7.5, MgCl2 10 mM, 7.5 mM DTT) were added to each well of a 96 U bottom well plate. After 10 min at 37° C. incubation, reaction was stopped by 20 μl EDTA 120 mM.
Capture: 100 μl were transferred from each well to MultiScreen plate, to allow substrate binding to phosphocellulose filter. […]
Detection: filters were allowed to dry at 37° C., then 100 μl/well scintillant were added and ^33P labelled histone H1 was detected by radioactivity counting in the Top-Count instrument.
Results: data were analysed and expressed as % inhibition referred to total activity of enzyme (=100%). […]

Ki: 100 nM
Structure (SMILES): CC(C)c1cnc(NC(=O)Cc2ccc(N(C)C)cc2)s1 [2-[4-(dimethylamino)phenyl]-N-(5-isopropyl-1,3-thiazol-2-yl)acetamide]
